“And” between values parts separate entries of the source, which are not always exact repeats. Equal values may be shown once.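 Compound exposure: 48 hours, 5 concentrations, 96-well plates. GI50 marks 50% less growth. TGI: total growth inhibition.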 Where a SMILES comes first, the peptide text is derived from it. [ ]: non-standard residue; d: D form. ξ: configuration not given here. Pentanoyl(2-O,4-OH,5-Cl) = O=C(O)C(O)CC(O)CCl; Ile(3ξ) = CCC(C)[C@H](N)C(=O)O; NMeV = CN[C@H](C(=O)O)C(C)C; NMeA = CN[C@@H](C)C(=O)O; βAla = NCCC(=O)O

Drawing on PubChem BioAssay (NCI), this text covers GI50 and TGI for twelve molecules.

Experiment in all cases: NCI tumour cell line growth inhibition, 48 h
Experiment [1] relates to ACHN renal.
In experiment [2] the test system is BT-549 breast.
In experiment [3] the test system is CAKI-1 renal.
The test system of experiment [4] is HT29 colon.
Experiment [5] relates to M14 melanoma.
Experiment [6] concerns NCI-H460 lung.
The test system of experiment [7] is SK-MEL-2 melanoma.
Experiment [8] has as its system SK-MEL-28 melanoma.
The test system of experiment [9] is SR leukemia.
Experiment [10] has as its system UO-31 renal.

On to `Cc1ccc(/C=C/C(=O)c2ccc(F)cc2)s1`, for which the GI50 is 2.26 µM in experiment [1]; 3.02 µM in [2]; 1.78 µM in [3]; 2.09 µM in [4]; 7.89 µM in [5]; 3.24 µM in experiment [6]. Besides, the GI50 was 4.35 µM in experiment [7], 2.94 µM in [8], 2.86 µM in experiment [9] and 1.69 µM in experiment [10]. Also, the TGI in experiment [1] worked out at 4.52 µM; in [2], 8.49 µM; in experiment [3], 3.72 µM; in [4], 4.11 µM; in experiment [5], 26.7 µM; in experiment [6], 10.6 µM. Moreover, the TGI in experiment [7] worked out at 15.6 µM; in experiment [8] it was 7.31 µM; in experiment [9], 20 µM; in experiment [10] it was 4.04 µM.

On to `O=C(O)c1c2c(c(O)c3c1CN(C1CCCCC1)CO3)OCN(C1CCCCC1)C2`, for which the TGI in [1] was above 100 µM; in [2] it was above 100 µM; in experiment [3], above 100 µM; in experiment [4] it was above 100 µM; in [5], above 100 µM; in [6], 35.1 µM. For the same molecule, the TGI is above 100 µM in [7], above 100 µM in experiment [8], 73 µM in experiment [9] and above 100 µM in experiment [10].

Take `CCOc1ccc2nc3cc(N)ccc3c(N)c2c1`: the GI50 is 7.01 µM and 3.93 µM in experiment [1]; 2.23 µM and 1.8 µM in experiment [2]; 36.1 µM and 22.8 µM in [3]; 5.77 µM and 5.22 µM in experiment [4]; 8.31 µM and 10.7 µM in [5]; 3.13 µM and 3.9 µM in experiment [6]. Besides, the GI50 in [7] was 2.36 µM and 2.22 µM; in experiment [8], 4.4 µM and 4.3 µM; in experiment [9], 2.61 µM and 2.8 µM; in experiment [10] it was 3.11 µM and 11.6 µM. Further, the TGI is 48.3 µM and 16.6 µM in experiment [1]; 8.28 µM and 4.91 µM in experiment [2]; > 100 µM and 76.3 µM in experiment [3]; 19.5 µM and 17.9 µM in experiment [4]; 26.3 µM and 23.4 µM in experiment [5]; 12.6 µM and 15.7 µM in experiment [6]. Besides, the TGI in experiment [7] is 6.19 µM and 5.86 µM; in experiment [8] it was 15.7 µM and 15.9 µM; in [9], 8.36 µM and 8.48 µM; in [10], 27.7 µM and 62.8 µM.

Turning to `CN1CCN(CCCOC(=O)c2c3c(n4ccccc24)C(=O)c2ncccc2C3=O)CC1`, the GI50 in experiment [1] was below 0.01 µM; in experiment [2] it was 0.426 µM; in experiment [3] it was below 0.01 µM; in [4], 0.164 µM; in experiment [5], below 0.0149 µM; in [6] it was below 0.01 µM. Besides, the GI50 in experiment [7] was 0.0313 µM; in experiment [8] it was 0.08 µM; in experiment [9], below 0.01 µM; in experiment [10], below 0.01 µM. Also, the TGI is 0.0154 µM in [1]; 16.3 µM in experiment [2]; 0.366 µM in experiment [3]; 2.18 µM in [4]; 0.253 µM in [5]; below 0.0118 µM in experiment [6]. In addition, the TGI in experiment [7] was 0.274 µM; in experiment [8], 4.25 µM; in experiment [9], above 100 µM.

As to `CC(C)OC(=O)Nc1c([N+](=O)[O-])cc(C(F)(F)F)cc1[N+](=O)[O-]`, the TGI in experiment [1], in experiment [2], in experiment [3], in experiment [4], in [5] and in [6] was above 100 µM in each case. Besides, the TGI in experiment [7], in [8], in [9] and in experiment [10] was above 100 µM in each case.

For `C=C(C)[C@@H]1CC[C@]2(C(=O)OC)CC[C@]3(C)[C@H](CC[C@@H]4[C@@](C)(CCc5nn[nH]n5)[C@H](C(=C)C)CC[C@]43C)[C@@H]12`, the GI50 in experiment [1] was 15 µM; in experiment [2], 33.2 µM; in [3], 10.2 µM; in experiment [4], 20.6 µM; in experiment [5], 27.5 µM; in experiment [6], 20.5 µM. Further, the GI50 in experiment [7] was 16.7 µM; in [8], 12.9 µM; in experiment [9] it was 11.4 µM; in experiment [10], 10.9 µM. The TGI in [1] was 48.1 µM; in [2], above 100 µM; in experiment [3], 35 µM; in experiment [4], 73.3 µM; in experiment [5] it was above 100 µM; in experiment [6] it was 44 µM. Also, the TGI in experiment [7] was 39.5 µM; in [8], 27.8 µM; in experiment [9] it was 49.4 µM; in experiment [10] it was 23 µM.

With `COCCn1c(Nc2ccc(C(=O)NO)cc2)nc2ccccc21`, the GI50 is 2.85 µM in experiment [1]; 15.2 µM in experiment [2]; 1.37 µM in [3]; 2.97 µM in [4]; 3.49 µM in [5]; 4.06 µM in [6]. The GI50 is 5.33 µM in experiment [7], 4.94 µM in experiment [8], 1.69 µM in experiment [9] and 2.25 µM in experiment [10]. Further, the TGI is 12.9 µM in experiment [1]; 67.9 µM in [2]; 6.24 µM in experiment [3]; above 100 µM in [4]; 14.9 µM in [5]; 30.4 µM in [6]. Moreover, the TGI in experiment [7] was 50.3 µM; in [8], 21 µM; in [9] it was above 100 µM; in experiment [10], 17.1 µM.

Regarding `N#Cc1nc2cc(Cl)c(Cl)cc2nc1-c1ccc(Cl)cc1`, the GI50 in [1] is 20 µM; in experiment [2] it was above 100 µM; in experiment [3] it was 34 µM; in [4], above 100 µM; in experiment [5], above 85.3 µM; in experiment [6], 37.6 µM. The GI50 in experiment [7] is above 56 µM; in experiment [8], above 92 µM; in experiment [9], 22 µM; in experiment [10], 34.7 µM. Besides, the TGI in experiment [1] is 47.6 µM; in [2], above 100 µM; in [3], above 66.8 µM; in experiment [4], above 100 µM; in experiment [5], above 100 µM; in experiment [6], above 100 µM. The TGI in [7] is above 100 µM; in experiment [8] it was above 100 µM; in [9] it was 53.1 µM; in [10], above 100 µM.

As for `CCCCCOC(=O)c1c(C)[nH]c(/C=C2\N=C(c3ccc[nH]3)C=C2OC)c1C`, the GI50 in [1] is 0.0396 µM; in experiment [2] it was 0.0469 µM; in experiment [3] it was 0.0335 µM; in experiment [4], 0.0154 µM; in experiment [5], 0.0204 µM; in experiment [6], 0.0309 µM. The GI50 was 0.0222 µM in experiment [7], 0.129 µM in experiment [8], below 0.0107 µM in experiment [9] and 0.021 µM in experiment [10]. The TGI came out at 1.21 µM in experiment [1]; 1.1 µM in experiment [2]; 0.335 µM in experiment [3]; 1.34 µM in experiment [4]; 0.0481 µM in experiment [5]; 1.47 µM in [6]. For the same molecule, the TGI was found to be 0.0681 µM in experiment [7], 1.25 µM in experiment [8], 0.0403 µM in [9] and 0.0689 µM in experiment [10].

Regarding `Cc1ccc(NC(=O)c2ccoc2)cc1-c1ccc(C(=O)NCC2CC2)cc1`, the GI50 in experiment [1] was above 25 µM; in experiment [2], above 19.7 µM; in experiment [3], above 25 µM; in experiment [4] it was above 25 µM; in [5], above 25 µM; in experiment [6], above 24 µM. Moreover, the GI50 is above 25 µM in [7], above 25 µM in experiment [8], above 25 µM in experiment [9] and above 9.98 µM in experiment [10]. Further, the TGI in experiment [1], in experiment [2], in experiment [3], in [4], in experiment [5] and in experiment [6] was above 25 µM each time. The TGI in experiment [7] was above 25 µM; in [8] it was above 25 µM; in [9], above 25 µM; in experiment [10], above 17.1 µM.

In the case of `CN1CCN(c2ccc3nc(-c4[nH]ncc4Nc4ncnc5[nH]ccc45)[nH]c3c2)CC1`, the GI50 in experiment [1] was 0.394 µM; in [2] it was 0.222 µM; in experiment [3], 0.183 µM; in [4], 1.47 µM; in experiment [5], 0.377 µM; in [6], 2.68 µM. Further, the GI50 in experiment [7] was 0.39 µM; in [8], 0.309 µM; in experiment [9] it was 0.0472 µM; in experiment [10], 0.558 µM. The TGI amounted to 7.66 µM in experiment [1]; 0.816 µM in experiment [2]; 1.57 µM in experiment [3]; 6.06 µM in [4]; 1.84 µM in [5]; 9.78 µM in [6]. The TGI in [7] was 1.91 µM; in experiment [8], 1.75 µM; in experiment [10] it was 2.57 µM.

Regarding `CCC(C)[C@@H]1NC(=O)[C@@H]2CCCN2C(=O)C(CC(O)CCl)OC(=O)CCNC(=O)[C@H](C)N(C)C(=O)[C@H](C(C)C)N(C)C1=O` (stereo partly drawn) (cyclo([Ile(3ξ)][NMeV][NMeA][βAla][Pentanoyl(2-O,4-OH,5-Cl)]P)), the TGI in [1] is above 100 µM; in experiment [2], above 100 µM; in experiment [3] it was above 100 µM; in [4], above 100 µM; in [5], 3.09 µM; in experiment [6] it was above 100 µM. Besides, the TGI in [7] was 1.89 µM; in experiment [8] it was above 100 µM; in [9] it was above 100 µM; in experiment [10], above 100 µM.
